Key:
B16–F10 cells = assay: RNaseq gene expression profiling; format: cell-based, mouse; details: 100 nM, 24 h;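 for logFC Cck: Hybrid compounds tested at 10 µM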;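 for logFC Cited1: Hybrid compounds tested at 10 µM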
Procedure: AC-340 superinduced CYP24A1 expression in all cell lines tested, and ZG-126 appeared to be a hyperagonist in SK-MEL-28 cells. […] AC-340 treatment produced 3 times more differentially expressed genes (DEGs) than AM-193, with ZG-126 producing an intermediate number (Figure A). […] The varying effects of each treatment on the numbers of regulated genes and the fold changes observed are reflected in plots of log-fold changes and volcano plots (Figure S3B).
A quality control was performed before sequencing in paired-end at 50 M reads by Illumina NovaSeq 6000 S4 PE100. After sequencing, the FASTQ files were sent to us and all downstream analysis were performed on Galaxy (Galaxy (usegalaxy.org)). First, trimmomatic tool was used to remove the adapters from the reads. Then, using the alignment tool, HISAT2, the reads were mapped to the mouse genome. In the next step, the counted reads were annotated and finally the list of differentially expressed genes (DEGs) for each treatment was obtained using the preinstalled R package called Limma.

[1] = target: T1, zebrafish vitamin D receptor ligand binding domain (zVDR LBD, 156-453) (zebrafish, UniProt Q9PTN2 156-453); assay: crystal structure; zVDR LBD (3-7 mg/mL) incubated with a 2-fold excess of ligand AC-340 and a 3-fold excess of the NCoA2 NR2 peptide; crystals at 293 K in Na2 tartrate 1.1 M, MgCl2 0.2 M, Hepes 0.1 M pH 7.5; one LBD complex per asymmetric unit; refined to 2.1 Å; details: both partners purified
T1 construct: Cloned into pET28b; the His tag was removed by thrombin, so residues of the vector may remain at the end; The crystal also holds the small molecule AC-340; also called zebrafish VDR; source: Escherichia coli BL21 DE3, purified (Ni Hitrap FF crude column, thrombin cleavage, size exclusion on HiLoad Superdex 75)
T1 sequence (looked up): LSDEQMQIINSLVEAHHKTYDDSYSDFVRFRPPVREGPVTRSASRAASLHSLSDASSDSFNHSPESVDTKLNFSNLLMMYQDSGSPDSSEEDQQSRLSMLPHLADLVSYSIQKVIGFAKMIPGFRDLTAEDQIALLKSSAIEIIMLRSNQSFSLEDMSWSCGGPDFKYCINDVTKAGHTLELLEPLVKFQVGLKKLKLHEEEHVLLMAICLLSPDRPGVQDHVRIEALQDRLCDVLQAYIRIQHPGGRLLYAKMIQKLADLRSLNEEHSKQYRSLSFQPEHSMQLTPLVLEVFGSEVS

Molecule: O=C(CCCCCCC(=O)Nc1ccccc1)NO [SAHA, suberoylanilide hydroxamic acid]
- logFC 1500009L16Rik (B16–F10 cells): 0.7062
- logFC Abca13 (B16–F10 cells): 0.7574
- logFC Adam19 (B16–F10 cells): 0.5841
- logFC Adamts7 (B16–F10 cells): 1.124
- logFC Adamts14 (B16–F10 cells): 1.217
- logFC Ank3 (B16–F10 cells): 0.7456
- logFC Apbb1 (B16–F10 cells): 0.8022
- logFC Atcay (B16–F10 cells): 1.535
- logFC Atp1b2 (B16–F10 cells): 0.7178
- logFC Atp2b4 (B16–F10 cells): 0.9179
- logFC Bcan (B16–F10 cells): 0.5824
- logFC Btn1a1 (B16–F10 cells): 2.439
- logFC C1qtnf1 (B16–F10 cells): 1.607
- logFC C1s1 (B16–F10 cells): 0.9877
- logFC Card10 (B16–F10 cells): 0.6233
- logFC Cck (B16–F10 cells): -0.6184
- logFC Ccl2 (B16–F10 cells): 0.7906
- logFC Chn1 (B16–F10 cells): 0.6625
- logFC Cited1 (B16–F10 cells): -0.5815
- logFC Clcnka (B16–F10 cells): 1.628
- logFC Clu (B16–F10 cells): 0.9236
- logFC Col1a1 (B16–F10 cells): 1.702
- logFC Cpm (B16–F10 cells): 0.8993
- logFC Crip1 (B16–F10 cells): 0.7228
- logFC Crmp1 (B16–F10 cells): 0.7266
- logFC Csdc2 (B16–F10 cells): 1.013
- logFC Dock10 (B16–F10 cells): 0.6896
- logFC Egfl7 (B16–F10 cells): 0.5994
- logFC Elovl4 (B16–F10 cells): 0.6542
- logFC Enpp1 (B16–F10 cells): 0.7446
- logFC Enpp3 (B16–F10 cells): 0.9035
- logFC Entpd2 (B16–F10 cells): 0.9577
- logFC Fam131b (B16–F10 cells): 1.153
- logFC Fbxo41 (B16–F10 cells): 0.8175
- logFC Fstl1 (B16–F10 cells): 1.348
- logFC Gli1 (B16–F10 cells): 1.843
- logFC Glipr2 (B16–F10 cells): 0.8149
- logFC Gpr162 (B16–F10 cells): 0.6749
- logFC Gsdmc (B16–F10 cells): 0.6713
- logFC Gstt1 (B16–F10 cells): 1.731
- logFC Hoxb9 (B16–F10 cells): 0.9565
- logFC Itga8 (B16–F10 cells): 0.6392
- logFC Jam2 (B16–F10 cells): 0.5927
- logFC Kcnh2 (B16–F10 cells): 1.1509
- logFC Kcnt1 (B16–F10 cells): 2.101
- logFC Kdelr3 (B16–F10 cells): 0.5979
- logFC Klrg2 (B16–F10 cells): 0.6093
- logFC Loxl4 (B16–F10 cells): 0.8565
- logFC Lrp11 (B16–F10 cells): 0.65
- logFC Lrrc75b (B16–F10 cells): 1.006
- logFC Ltbp4 (B16–F10 cells): 1.299
- logFC Map2 (B16–F10 cells): 0.5974
- logFC Mgat3 (B16–F10 cells): 0.5859
- logFC Mmp11 (B16–F10 cells): 0.7246
- logFC Mmp17 (B16–F10 cells): 1.252
- logFC Mogat2 (B16–F10 cells): 0.5856
- logFC Myl9 (B16–F10 cells): 0.6886
- logFC Nacad (B16–F10 cells): 0.9826
- logFC Ndrg4 (B16–F10 cells): 0.8254
- logFC Neurl1a (B16–F10 cells): 0.5887
- logFC Notch1 (B16–F10 cells): 0.8121
- logFC Palld (B16–F10 cells): 0.5874
- logFC Pcdh17 (B16–F10 cells): 0.6033
- logFC Pdgfra (B16–F10 cells): 1.16
- logFC Plat (B16–F10 cells): 0.5899
- logFC Plppr2 (B16–F10 cells): 0.641
- logFC Plppr3 (B16–F10 cells): 0.7184
- logFC Pmm1 (B16–F10 cells): 0.5873
- logFC Ppm1j (B16–F10 cells): 0.9349
- logFC Prelp (B16–F10 cells): 0.6949
- logFC Prnd (B16–F10 cells): 0.9638
- logFC Prph (B16–F10 cells): 1.113
- logFC Ptgs1 (B16–F10 cells): 0.7769
- logFC Rab7b (B16–F10 cells): 1.164
- logFC Rasa4 (B16–F10 cells): 1.171
- logFC Rcn3 (B16–F10 cells): 0.5908
- logFC Reep6 (B16–F10 cells): 0.6217
- logFC Rflnb (B16–F10 cells): 0.6241
- logFC Rhpn2 (B16–F10 cells): 0.7266
- logFC Rtn2 (B16–F10 cells): 0.735
- logFC Rtn4rl2 (B16–F10 cells): 1.53
- logFC Rundc3a (B16–F10 cells): 0.8211
- logFC S100a6 (B16–F10 cells): 0.8372
- logFC Scube3 (B16–F10 cells): 0.7375
- logFC Septin4 (B16–F10 cells): 0.8607
- logFC Septin5 (B16–F10 cells): 1.1153
- logFC Spn (B16–F10 cells): 1.292
- logFC Sptbn2 (B16–F10 cells): -0.6313
- logFC Stum (B16–F10 cells): 0.9146
- logFC Syt3 (B16–F10 cells): 1.3692
- logFC Syt7 (B16–F10 cells): 0.603
- logFC Tagln2 (B16–F10 cells): 0.7428
- logFC Tgm2 (B16–F10 cells): 1.1319
- logFC Thbs3 (B16–F10 cells): 0.7215
- logFC Tlr1 (B16–F10 cells): 0.6918
- logFC Trim47 (B16–F10 cells): 0.6166
- logFC Trnp1 (B16–F10 cells): 0.6142
- logFC Uchl1 (B16–F10 cells): 0.7608
- logFC Vash1 (B16–F10 cells): 0.6486
- logFC Vdr (B16–F10 cells): 1.045
- logFC Wfdc1 (B16–F10 cells): 0.7568
- logFC Wnt6 (B16–F10 cells): 1.4553

B1: coactivator NCoA2 NR2 peptide (human nuclear receptor coactivator 2, second NR box) (peptide)
peptide: KHKILHRLLQDSS
notes: also called NCoA2 peptide
- binding result [1]: binds

Reference: publication PMC12517324, “Hyperagonism of a Vitamin D Receptor Agonist/Histone Deacetylase Inhibitor Hybrid Molecule” (Journal of Medicinal Chemistry, 2025)
